Read-outs that look alike come from different tables or passages of the source.
Key:
[1] = system: Erysiphe graminis f. sp. tritici; assay: Wheat Powdery Mildew Foliar Assay (WPM Prot); type: in vivo
Experimental: A) Pathogen/Inoculum Production--Leaf material infected with the wheat powdery mildew fungus, Erysiphe graminis f. sp. tritici, is maintained continuously on wheat seedlings, cv. Caldewell.
(B) Host Propagation, (C) Compound Preparation and (D) Compound Application follow as per Example 1.
(E) Inoculation/Incubation--Inoculation of the test plants takes place 24 hours after compound application. Inoculation is accomplished by gently shaking plants previously infected with the Erysiphe graminis f. sp. tritici fungus over the test plants. This process liberates a cloud of spores which effectively and uniformly fall onto the test plants. After inoculation the plants are returned to the environmental conditions under which they were grown.
(F) Evaluation and (G) Data follow as per Example 1. The percent protection values for the compounds of the present invention are as set out in the Table below.

[2] = system: Pseudocercosporella herpotrichoides var. tritici; assay: Wheat True Eyespot In Vitro Assay (WES In Vitro); type: cell-based; set-up: key: 0: no inhibition of mycelial growth; 1: slight inhibition of mycelial growth; 2: moderate inhibition of mycelial growth; 3: strong inhibition of mycelial growth; conditions: 3 days at 19° C.
Experimental: A) Pathogen/Inoculum Production--A mycelial transfer of Pseudocercosporella herpotrichoides var. tritici is placed onto potato dextrose agar plates and allowed to grow for 40 days at 20 ° C., without light. Five agar discs are taken from the actively growing culture and are placed equidistant, mycelial side down, onto a water agar plate, and incubated at 10 ° C. with 10 hours of fluorescent light per day. After 5 days of incubation, sporulation on the transferred discs begins, and plates are flooded with 3-5 mls sterile deionized water. One-half ml aliquots are taken from the resulting spore suspension and placed on new water agar plates. Spores are spread across plates using a bent glass rod and incubated at 10 ° C. with 10 hour fluorescent light periods per day. In 5-10 days, a lawn of spores is produced and can be "harvested".
B) Compound Preparation and Test Execution--200 μl of 1/4 strength potato dextrose broth is placed in each well of a 96 well microtiter plate. […] The commercial standard used is prochloraz at equivalent rates.
C) Inoculation/Incubation--50 μl of a 1×10^6 spores/ml suspension harvested using the method above is added to each well. The 96 well plates are incubated for 3 days at 19° C. in the dark.
(§1) D) Evaluation--After incubation, each well is visually assessed for growth inhibition on the following 0-3 scale:
(§2) 0=no inhibition of mycelial growth
(§3) 1=slight inhibition of mycelial growth
(§4) 2=moderate inhibition of mycelial growth
(§5) 3=strong inhibition of mycelial growth

[3] = biological target: Succinate Dehydrogenase; assay: Enzyme Inhibition I-50 (WGB): Succinate Dehydrogenase Assay using Septoria nodorum mitochondria; type: biochemical
Experimental: Succinate Dehydrogenase Assay using Septoria nodorum mitochondria--Septorianodorum mycelia are prepared from spores via shake culture for 40-48 hours in 3% malt extract at room temperature. The mycelia are harvested by centrifugation and the pellets obtained are stored in the -80° C. freezer until use.
Mitochondria are isolated by a method adapted from White (Biochem. Biophys. Res. Commun. 44 (1971) 1212-19). Fifteen to twenty grams of frozen mycelia are resuspended in a 250 mL medium containing 0.25M sucrose, 5 mM tetrasodium ethylenediamine tetraacetic acid (Na4 EDTA), pH 7.0 containing 1.5 g/liter bovine serum albumin (BSA) and placed in a Bead Beater chamber (BioSpec Products, Bartlesville, Okla.). Zirconium oxide beads (0.5 mm) are added to finish filling the chamber. Four 30s beats separated by 2 rain temperature equilibration periods on ice are used to break the mycelia. The homogenate is centrifuged for 20 min at 3000×g and 4° C. to remove debris. The supernatant is recentrifuged at 20,000×g for 20 min at 4° C. The resulting pellet is resuspended in BSA-free sucrose/EDTA medium (40 mL) using a glass tissue homogenizer and teflon pestle and recentrifuged at 27,000×g for 15 min at 4° C. The pellet is resuspended in BSA-free sucrose/EDTA medium (~3 mL) and used for SDH assays.
The enzyme activity is measured at […] in a solution containing 50 mM potassium phosphate, pH7.2; 1 mM potassium cyanide; 45 μM 2,6-dichlorophenol indophenol (DCPIP) and 17 mM disodium succinate in a final volume of 1 mL with a Perkin-Elmer Lambda 7 ultraviolet-visible spectrophotometer. The test compounds are added as acetone solutions (final concentration of acetone less than or equal to 1%(v/v)). The mitochondrial preparations are used to initiate the reaction. All rates are corrected for succinate-independent dye reduction. Semilog plots of percentage inhibition versus test compound concentration are used to determine inhibition expressed as I50 (μM) which is the concentration required to inhabit the rate of DCPIP reduction by 50%. The commercial fungicide carboxin is used as a standard throughout [I50 (μM)=5.0±2.2; n=52].

[4] = system: Septoria nodorum; assay: Wheat Glume Blotch (WGB) In Vitro; type: cell-based; set-up: key: 0: no inhibition of mycelial growth; 1: slight inhibition of mycelial growth; 2: moderate inhibition of mycelial growth; 3: strong inhibition of mycelial growth; conditions: 4-6 days at 25° C.
Experimental: A) Pathogen/Inoculum Production--The wheat glume blotch fungus, Septoria nodorum, is cultured on yeast/malt agar at 22° C. and 12 hours fluorescent light. Several sterile loops full of mature pycnidia produced on a 7 day old culture plates are added to 30 mls of 1/4 strength potato dextrose broth. After 15 minutes the suspension is stirred, and adjusted to a concentration of 3×10^5 spores/mi.
B) Compound Preparation and Test Execution--200 μl of 1/4 strength potato dextrose broth is placed in each well of a 96 well microtiter plate. […] The commercial standard used is flusilazole, at equivalent rates.
C) Inoculation/Incubation--50 μl of a 3×10^5 spores/ml suspension obtained using the method above is added to each well. The 96-well plate is incubated for 4-6 days at 25° C., 12 hours fluorescent light.
as §1, §2, §3, §4, §5

[5] = system: Botrytis cinerea Mitochondria; conditions: 1 μM concentration; cited from earlier work
[6] = system: Septoria nodorum; assay: Wheat Glume Blotch Foliar Assay, protectant (WGB Prot); type: in vivo; conditions: 10 ppm, application two days pre-inoculation
Experimental: A) Host Propagation--Winter wheat plants, cv. Caldwell, are grown in 5.7 cm^2 pots, three per pot, and maintained in a growth chamber set at 20° C., 80% RH with a 12 hour photoperiod.
B) Compound Preparation--A 1.0% stock solution of each of the compounds of the present invention is first prepared utilizing an appropriate solvent such as acetone, water or DMSO. This stock is then used to prepare the final spray solution which contains the compound at the desired dosage, eg 100 ppm and 20 ppm, acetone at 20% v/v, Tween®20 at .05% w/v, and water at about 80%. Commercial standard used is tebuconazole at equivalent rates.
C) Compound Application, Seedlings are sprayed at the two-leaf stage (GS 12) using a DeVilbiss Model 152 hand operated sprayer set at 15-20 psi. Six ml of the test solution per treatment are applied to three pots. In the protectant assay (EXAMPLE 8), the compound application is made two days pre-inoculation. In the curative assay (EXAMPLE 9), the compound is applied during a brief interruption of the disease incubation period two days post-inoculation.
D) Pathogen Production/Inoculation--The wheat glume blotch fungus, Septoria nodorum, is maintained in the pycnidial state on yeast malt agar (YMA) and transferred weekly by streaking a suspension of conidia obtained from a ten to twelve day old sporulating culture onto fresh YMA plates. The plates are incubated at 20° C. with a 12 hour photoperiod.
Test inoculum is prepared by flooding seven day old culture plates with deionized water amended with Tween®20 (0.1% v/v) and gently scraping the pycnidia to release the extruding masses of conidia. The resulting spore suspension is filtered through two layers of cheese cloth and adjusted to 4×10^6 spores/ml utilizing the Tween®20 solution.
Forty-eight hours after the compound application and prior to inoculation, the test plants are preconditioned for at least one hour in a dark growth chamber set at 20° C. and 100% RH. After the preconditioning period is over, the conidial suspension is applied to run-off using a DiVilbiss hand operated sprayer. The plants are then returned to the preconditioning chamber and incubated at the same settings for 96 hours. Light is supplied to the plants during the last twelve hours of incubation. At the end of the 96 hour period, the plants are returned to the environmental conditions under which they were grown.
E) Test Evaluation--Eight to ten days after removal from the high humidity chamber, or twelve to fourteen days after inoculation, treatments are evaluated by visually estimating the percentage of the leaf area (on the first leaf) covered with lesions. Three ratings are made on each pot which constitutes a replicate. Each replicate then receives a numerical mean by averaging the three values. Percent disease, as well as percent control values are calculated. The percent control values obtained from these assays for the compounds of the present invention are as set out in the Table below.

CCO[C@H]1CC[C@H](c2ccccc2NC(=O)c2cn(C)nc2C(F)F)CC1 [Number 7, 1H-pyrazole-4-carboxamide, 3-(difluoromethyl)-N-[2-(4-ethoxycyclohexyl)phenyl]-1-methyl-,trans-]
WPM Prot percent disease control ([1]; 500 ppm foliar protectant): 96% | WES In vitro growth inhibition 0-3 scale ([2]; 0.1 ppm): 0 | WES In vitro growth inhibition 0-3 scale ([2]; 0.5 ppm): 0 | WES In vitro growth inhibition 0-3 scale ([2]; 5.0 ppm): 1 | IC50 ([3]; DCPIP reduction, read-out: WGB enzyme I-50): 170 nM | WGB In Vitro growth inhibition 0-3 scale ([4]; 0.1 ppm): 0 | WGB In Vitro growth inhibition 0-3 scale ([4]; 0.5 ppm): 0 | WGB In Vitro growth inhibition 0-3 scale ([4]; 5.0 ppm): 1

CC1=C(C(=O)Nc2ccccc2)SCCO1 [carboxin, reference compound]
IC50 ([3]; standard throughout, n=52, read-out: I50): 5000 ± 2200 nM | respiratory inhibition [5]: 68%

Cn1cc(C(=O)Nc2ccccc2C2CCC(C(F)(F)F)CC2)c(C(F)F)n1 (stereo not drawn) [Number 8]
WPM Prot percent disease control ([1]; 10 ppm foliar protectant): 91% | WGB Prot percent control [6]: 85%

From patent US5498624A, “Selected pyrazolyl derivatives” (Monsanto Company, priority 1995, dated 1996)
